These results are taken from paper PMC11035696, “Prospective de novo drug design with deep interactome learning” (Nature Communications, 2024).

One assay has as its system PPARγ. The following applies: known PPARγ activity of ChEMBL ligands; ref ChEMBL database; cited from earlier work.
The target in the next assay is T1, human PPARγ (Homo sapiens, UniProt P37231).
T1 construct: expressed in transfected cells; host or cells: HEK293T
T1 sequence (P37231 238-503 limits assumed): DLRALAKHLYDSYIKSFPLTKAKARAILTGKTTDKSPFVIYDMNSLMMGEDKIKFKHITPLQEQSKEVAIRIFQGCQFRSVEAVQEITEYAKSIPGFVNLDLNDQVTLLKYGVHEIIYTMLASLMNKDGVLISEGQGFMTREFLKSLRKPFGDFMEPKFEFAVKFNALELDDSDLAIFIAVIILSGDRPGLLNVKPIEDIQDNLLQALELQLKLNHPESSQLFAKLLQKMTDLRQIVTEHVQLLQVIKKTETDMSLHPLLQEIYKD
Description: Gal4-hybrid reporter gene assay, PPARγ activation. It is filed as cell-based. The method, then: (§1) Compounds 1–3 were characterized in a hybrid reporter gene assay for their agoniztic effect on human nuclear receptors PPARα/γ/δ, RXRα, FXRα, RARα in HEK293T cells. Compound 1 was tested in an isothermal titration calorimetry (ITC) assay to measure direct binding affinity to the ligand-binding domain of PPARγ. ADME properties were measured in standardized assays at Roche.
(§2) PPAR activation was determined in uniform Gal4-hybrid reporter gene assays for the PPARα, PPARγ and PPARδ isoforms in HEK293T cells (German Collection of Microorganisms and Cell Culture GmbH, DSMZ) which were transiently transfected with pFR-Luc (Stratagene, La Jolla, CA, USA; reporter) and pRL-SV40 (Promega, Madison, WI, USA; internal control) and one pFA-CMV-hPPAR-LBD[97] clone, coding for the hinge region and ligand binding domain of the canonical isoform of human PPARα, PPARγ, PPARδ or respectively. Cells were cultured in Dulbecco’s modified Eagle’s medium (DMEM), high glucose supplemented with 10% fetal calf serum (FCS), sodium pyruvate (1 mM), penicillin (100 U ⋅ ml^-1), and streptomycin (100 μg ⋅ ml^-1) at 37 °C and 5% CO2 and seeded in 96-well plates (3 × 10^4 cells per well). After 24 h, medium was changed to Opti-MEM without supplements and cells were transiently transfected using Lipofectamine LTX reagent (Invitrogen) according to the manufacturer’s protocol. Five hours after transfection, cells were incubated with the test compounds in Opti-MEM supplemented with penicillin (100 U ⋅ ml^-1), streptomycin (100 μg ⋅ ml^-1) and 0.1% DMSO for 16 h before luciferase activity was measured using the Dual-Glo Luciferase Assay System (Promega) according to the manufacturer’s protocol on a Tecan Spark luminometer (Tecan Deutschland GmbH, Germany). Firefly luminescence was divided by Renilla luminescence and multiplied by 1000 resulting in relative light units (RLU) to normalize for transfection efficiency and cell growth. Fold activation was obtained by dividing the mean RLU of a test compound by the mean RLU of the untreated control. All samples were tested in at least three biologically independent experiments in duplicates. For dose-response curve fitting and calculation of EC50 values, the equation “[Agonist] versus response (variable slope—four parameters)” was used in GraphPad Prism (version 7.00, GraphPad Software, La Jolla, CA, USA) with fold activation data. The reference agonizts GW7647 (PPARα)[98],[99], pioglitazone (PPARγ)[100],[101] and L165,041 (PPARδ)[102],[103] were used to validate the assays and to monitor assay performance. Nuclear receptor selectivity profiling was performed with corresponding pFA-CMV-hNR-LBD clones and suitable reference agonizts on RARα (pFA-CMV-hRARα-LBD[104], 1 μM tretinoin), LXRα (pFA-CMV-hLXRα-LBD[104], 1 μM TO901317) and RXRα (pFA-CMV-h RXRα-LBD[105], 1 μM Bexarotene).

A further assay has as its target T2, human PPARδ (Homo sapiens, UniProt Q03181).
T2 construct: expressed in transfected cells; host or cells: HEK293T
T2 sequence (Q03181 211-439 limits assumed): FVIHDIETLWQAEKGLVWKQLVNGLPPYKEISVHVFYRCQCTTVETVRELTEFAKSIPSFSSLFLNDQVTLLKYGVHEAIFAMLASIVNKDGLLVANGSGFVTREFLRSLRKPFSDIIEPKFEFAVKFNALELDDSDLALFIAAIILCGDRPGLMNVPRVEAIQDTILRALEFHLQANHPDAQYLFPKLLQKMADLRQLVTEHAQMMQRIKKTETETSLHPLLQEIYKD
Description: Gal4-hybrid reporter gene assay, PPARδ activation. It is filed as cell-based. The following applies: result in words. The method, then: as §1
PPAR activation was determined in uniform Gal4-hybrid reporter gene assays for the PPARα, PPARγ and PPARδ isoforms in HEK293T cells (German Collection of Microorganisms and Cell Culture GmbH, DSMZ) which were transiently transfected with pFR-Luc (Stratagene, La Jolla, CA, USA; reporter) and pRL-SV40 (Promega, Madison, WI, USA; internal control) and one pFA-CMV-hPPAR-LBD[97] clone, coding for the hinge region and ligand binding domain of the canonical isoform of human PPARα, PPARγ, PPARδ or respectively. Cells were cultured in Dulbecco’s modified Eagle’s medium (DMEM), high glucose supplemented with 10% fetal calf serum (FCS), sodium pyruvate (1 mM), penicillin (100 U ⋅ ml^-1), and streptomycin (100 μg ⋅ ml^-1) at 37 °C and 5% CO2 and seeded in 96-well plates (3 × 10^4 cells per well). After 24 h, medium was changed to Opti-MEM without supplements and cells were transiently transfected using Lipofectamine LTX reagent (Invitrogen) according to the manufacturer’s protocol. Five hours after transfection, cells were incubated with the test compounds in Opti-MEM supplemented with penicillin (100 U ⋅ ml^-1), streptomycin (100 μg ⋅ ml^-1) and 0.1% DMSO for 16 h before luciferase activity was measured using the Dual-Glo Luciferase Assay System (Promega) according to the manufacturer’s protocol on a Tecan Spark luminometer (Tecan Deutschland GmbH, Germany). Firefly luminescence was divided by Renilla luminescence and multiplied by 1000 resulting in relative light units (RLU) to normalize for transfection efficiency and cell growth. Fold activation was obtained by dividing the mean RLU of a test compound by the mean RLU of the untreated control. […]
For orientation: A reporter such as luciferase makes a cellular process visible.

Another assay concerns the target T3, human PPARα (Homo sapiens, UniProt Q07869).
T3 construct: expressed in transfected cells; host or cells: HEK293T
T3 sequence (Q07869 239-466 limits assumed): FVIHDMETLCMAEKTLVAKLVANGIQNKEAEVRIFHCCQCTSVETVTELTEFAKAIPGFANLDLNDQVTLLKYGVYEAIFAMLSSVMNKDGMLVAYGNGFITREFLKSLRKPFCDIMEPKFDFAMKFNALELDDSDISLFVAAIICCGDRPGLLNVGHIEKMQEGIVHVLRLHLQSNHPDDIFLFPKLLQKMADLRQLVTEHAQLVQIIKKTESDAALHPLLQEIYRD
Description: Gal4-hybrid reporter gene assay, PPARα activation. It is filed as cell-based. The following applies: for Fold PPARα activation: individual replicates, source data Fig. 5. The method, then:
as §1, §2

For assay [1], the target named is T4, retinoid X receptor (RXR)α (Homo sapiens, UniProt P19793).
T4 construct: RXRα (pFA-CMV-h RXRα-LBD[105], 1 μM Bexarotene); expressed in transfected cells; host or cells: HEK293T
T4 sequence (P19793 227-458 limits assumed): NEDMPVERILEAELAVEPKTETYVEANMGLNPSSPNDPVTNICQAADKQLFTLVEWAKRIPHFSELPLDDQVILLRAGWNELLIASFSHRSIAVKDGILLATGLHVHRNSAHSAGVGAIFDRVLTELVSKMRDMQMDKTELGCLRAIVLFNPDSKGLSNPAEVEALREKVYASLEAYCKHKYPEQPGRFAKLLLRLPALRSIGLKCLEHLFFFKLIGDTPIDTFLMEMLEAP
Description: Nuclear receptor selectivity profiling, hybrid reporter gene assay, RXRα. In kind it is cell-based. The method, then:
as §1, §2

A further assay addresses T5, liver X receptor (LXR)α (Homo sapiens, UniProt Q13133).
T5 construct: LXRα (pFA-CMV-hLXRα-LBD[104], 1 μM TO901317); expressed in transfected cells; host or cells: HEK293T
T5 sequence (Q13133 209-447 limits assumed): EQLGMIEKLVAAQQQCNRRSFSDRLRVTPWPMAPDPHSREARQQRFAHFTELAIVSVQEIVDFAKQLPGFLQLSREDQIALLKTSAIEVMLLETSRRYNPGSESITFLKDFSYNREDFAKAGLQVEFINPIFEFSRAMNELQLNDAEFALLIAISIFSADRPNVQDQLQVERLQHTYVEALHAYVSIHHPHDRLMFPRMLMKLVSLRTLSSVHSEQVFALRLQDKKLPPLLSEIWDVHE
Description: Nuclear receptor selectivity profiling, hybrid reporter gene assay, LXRα. It is filed as cell-based. The procedure: as §2

Assay [2] addresses T6, retinoic acid receptor (RAR)α (Homo sapiens, UniProt P10276).
T6 construct: RARα (pFA-CMV-hRARα-LBD[104], 1 μM tretinoin); expressed in transfected cells; host or cells: HEK293T
T6 sequence (P10276 183-417 limits assumed): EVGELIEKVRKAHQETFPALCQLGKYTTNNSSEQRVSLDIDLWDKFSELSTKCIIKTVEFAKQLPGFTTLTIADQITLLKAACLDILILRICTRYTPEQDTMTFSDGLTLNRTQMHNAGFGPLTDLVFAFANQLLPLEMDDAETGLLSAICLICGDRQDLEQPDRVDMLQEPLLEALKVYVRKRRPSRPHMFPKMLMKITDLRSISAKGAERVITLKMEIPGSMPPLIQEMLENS
Description: Nuclear receptor selectivity profiling, hybrid reporter gene assay, RARα. In kind it is cell-based. The method, then: as §1, §2

The structures appear in SMILES notation. Several values for one entry are separate records, joined by “and”; a condition that tells them apart may be missing. Equal entries are not always repeated.

The term pEC50 denotes the EC50 on a negative log10 scale, so that one unit is a factor of ten. `CCCc1cc(C(F)(F)F)ccc1OCCCOc1ccc(OCC(=O)O)c(C)c1` [ChEMBL213355]: the pEC50 in the assay on PPARγ is on record as 6.82.
As for `Cc1cc(OCC[C@@H](C)Oc2ccc(Cl)cc2-c2ccccn2)ccc1CCC(=O)O` [ChEMBL241299], the pEC50 in the assay on PPARγ is 6.51.
Take `Cc1sc(-c2ccccc2F)nc1CCOc1ccc2c(c1)CC[C@H]2CC(=O)O` [ChEMBL391987]: in the assay with PPARγ, the pEC50 is given as 6.94.
A word on the EC50: it is the concentration at which the effect is half-maximal. `COc1ccc(Oc2ccc3c(c2)ncn3CCOc2ccc(CCC(=O)O)cc2)cc1` [Compound 3]: the “PPARγ reporter activation, replicate values (Figure 5)” value was 3,029 and 3,245 and 3,909 and 5,555 and 6,269 and 5,771 and 5,328 on human PPARγ (conc. 0,00000100 M); 8,955 and 11,943 and 12,245 and 11,406 on human PPARγ (conc. 0,00000200 M); 17,358 and 14,143 and 17,954 on human PPARγ (conc. 0,00000300 M); 19,221 and 19,629 and 17,043 and 19,534 and 21,221 and 20,328 and 19,624 on human PPARγ (conc. 0,00001000 M); 0,766 and 0,976 and 1,313 on human PPARγ (conc. 1,00000000e-007 M); 0,785 and 0,961 and 1,208 on human PPARγ (conc. 1,00000000e-008 M). For the same molecule, the “PPARγ reporter activation, replicate values (Figure 5)” value at human PPARγ (conc. 3,00000000e-007 M) is 1,068 and 1,571 and 1,294 and 2,247 and 2,063 and 1,947 and 1,524. Also, the EC50 at human PPARγ (hybrid reporter gene assay, HEK293T cells, read-out: EC50(PPARγ)) was 1800 ± 100 nM; at human PPARα (hybrid reporter gene assay, HEK293T cells) it was 3400 ± 300 nM. Moreover, the “activity on PPARδ” value on human PPARδ is “no discernible activity”. Besides, the “Fold PPARα activation” value at human PPARα (conc. 0,00000100 M) is 1,270 and 1,357 and 1,503; at human PPARα (conc. 0,00000300 M), 2,302 and 2,145 and 2,016; at human PPARα (conc. 0,00000600 M) it was 4,397 and 3,518 and 3,421; on human PPARα (conc. 0,00001000 M), 4,249 and 4,283 and 3,276; at human PPARα (conc. 1,00000000e-007 M) it was 0,978 and 1,133 and 1,009; on human PPARα (conc. 1,00000000e-008 M) it was 1,321 and 1,277 and 1,261. Also, at human PPARα (conc. 3,00000000e-007 M), the “Fold PPARα activation” value is 1,112 and 1,105 and 1,170. Further, the “RXRα reporter activation, replicate values (DMSO ctrl = 1,000)” value is 1,197 and 1,077 and 1,363 in assay [1] (3 µM); 1,155 and 1,200 and 1,295 in assay [1] (10 µM). Besides, the “LXRα reporter activation, replicate values (DMSO ctrl = 1,000)” value on liver X receptor (LXR)α (3 µM) was 2,211 and 1,139 and 1,444; at liver X receptor (LXR)α (10 µM), 2,149 and 1,346 and 1,762. Besides, the “RARα reporter activation, replicate values (DMSO ctrl = 1,000)” value was 1,594 and 0,817 and 1,542 in assay [2] (3 µM); 1,322 and 1,046 and 1,521 in assay [2] (10 µM).
